# Results as given in the kinase profiling compilation of Christmann-Franck et al. (2016).
# Tests used:
# Experiment in all cases: radiometric filter-binding kinase assay, Kinase HotSpot
# Details in all cases: compound 0.5 µM; ATP 10 µM
# [1] = target: AKT2 (human) (UniProt P31751)
# [2] = target: BLK (human) (UniProt P51451)
# [3] = target: BMX (human) (UniProt P51813)
# [4] = target: BTK (human) (UniProt Q06187)
# [5] = target: CDK4 CCND1 (human) (UniProt P24385+P11802)
# [6] = target: CDK4 CCND3 (human) (UniProt P30281+P11802)
# [7] = target: CDK7 CCNH MNAT1 (human) (UniProt P50613+P51948+P51946)
# [8] = target: CSNK1E (human) (UniProt P49674)
# [9] = target: DCLK2 (human) (UniProt Q8N568)
# Chain of DCLK2 (human) (Q8N568 whole entry, looked up): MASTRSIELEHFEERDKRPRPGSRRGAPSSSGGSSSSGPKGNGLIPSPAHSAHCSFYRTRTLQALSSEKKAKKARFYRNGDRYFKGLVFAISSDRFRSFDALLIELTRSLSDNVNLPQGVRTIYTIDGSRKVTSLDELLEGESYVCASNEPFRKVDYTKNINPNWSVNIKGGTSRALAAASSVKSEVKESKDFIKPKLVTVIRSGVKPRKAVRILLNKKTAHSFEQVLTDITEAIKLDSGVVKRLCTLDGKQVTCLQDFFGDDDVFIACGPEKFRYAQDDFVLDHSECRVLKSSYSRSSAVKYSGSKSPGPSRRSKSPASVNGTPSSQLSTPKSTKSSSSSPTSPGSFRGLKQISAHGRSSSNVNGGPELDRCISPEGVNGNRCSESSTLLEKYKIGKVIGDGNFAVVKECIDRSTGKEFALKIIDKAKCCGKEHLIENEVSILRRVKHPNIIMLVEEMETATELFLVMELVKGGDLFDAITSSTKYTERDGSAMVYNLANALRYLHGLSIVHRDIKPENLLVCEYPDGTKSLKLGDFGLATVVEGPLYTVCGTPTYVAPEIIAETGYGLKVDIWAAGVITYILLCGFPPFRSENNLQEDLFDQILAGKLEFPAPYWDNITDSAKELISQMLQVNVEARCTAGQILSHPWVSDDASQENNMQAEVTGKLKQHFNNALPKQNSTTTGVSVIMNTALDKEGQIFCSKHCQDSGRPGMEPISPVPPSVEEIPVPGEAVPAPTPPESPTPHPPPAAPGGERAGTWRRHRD
# [10] = target: DDR2 (human) (UniProt Q16832)
# [11] = target: DMPK (human) (UniProt Q09013)
# Chain of DMPK (human) (Q09013 whole entry, looked up): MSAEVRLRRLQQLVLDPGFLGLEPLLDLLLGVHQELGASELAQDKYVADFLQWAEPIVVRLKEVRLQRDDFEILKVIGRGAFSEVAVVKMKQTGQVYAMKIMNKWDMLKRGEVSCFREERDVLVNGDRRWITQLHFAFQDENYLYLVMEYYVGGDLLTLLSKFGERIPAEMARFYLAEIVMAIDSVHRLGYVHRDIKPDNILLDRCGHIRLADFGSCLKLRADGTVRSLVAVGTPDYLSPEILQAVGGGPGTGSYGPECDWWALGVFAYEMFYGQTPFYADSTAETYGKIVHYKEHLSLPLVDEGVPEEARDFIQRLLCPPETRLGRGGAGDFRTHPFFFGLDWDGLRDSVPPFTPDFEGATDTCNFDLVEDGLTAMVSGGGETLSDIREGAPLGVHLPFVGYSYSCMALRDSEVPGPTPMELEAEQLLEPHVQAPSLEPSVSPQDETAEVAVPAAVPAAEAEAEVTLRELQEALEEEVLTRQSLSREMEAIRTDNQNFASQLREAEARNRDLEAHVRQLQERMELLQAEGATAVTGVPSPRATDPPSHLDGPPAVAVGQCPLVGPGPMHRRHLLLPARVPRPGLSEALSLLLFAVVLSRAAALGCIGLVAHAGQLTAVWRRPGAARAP
# [12] = target: EPHA8 (human) (UniProt P29322)
# [13] = target: EPHB1 (human) (UniProt P54762)
# [14] = target: FGFR2 (human) (UniProt P21802)
# [15] = target: FGFR4 (human) (UniProt P22455)
# [16] = target: HCK (human) (UniProt P08631)
# [17] = target: HIPK3 (human) (UniProt Q9H422)
# [18] = target: IGF1R (human) (UniProt P08069)
# [19] = target: IRAK1 (human) (UniProt P51617)
# Chain of IRAK1 (human) (P51617 whole entry, looked up): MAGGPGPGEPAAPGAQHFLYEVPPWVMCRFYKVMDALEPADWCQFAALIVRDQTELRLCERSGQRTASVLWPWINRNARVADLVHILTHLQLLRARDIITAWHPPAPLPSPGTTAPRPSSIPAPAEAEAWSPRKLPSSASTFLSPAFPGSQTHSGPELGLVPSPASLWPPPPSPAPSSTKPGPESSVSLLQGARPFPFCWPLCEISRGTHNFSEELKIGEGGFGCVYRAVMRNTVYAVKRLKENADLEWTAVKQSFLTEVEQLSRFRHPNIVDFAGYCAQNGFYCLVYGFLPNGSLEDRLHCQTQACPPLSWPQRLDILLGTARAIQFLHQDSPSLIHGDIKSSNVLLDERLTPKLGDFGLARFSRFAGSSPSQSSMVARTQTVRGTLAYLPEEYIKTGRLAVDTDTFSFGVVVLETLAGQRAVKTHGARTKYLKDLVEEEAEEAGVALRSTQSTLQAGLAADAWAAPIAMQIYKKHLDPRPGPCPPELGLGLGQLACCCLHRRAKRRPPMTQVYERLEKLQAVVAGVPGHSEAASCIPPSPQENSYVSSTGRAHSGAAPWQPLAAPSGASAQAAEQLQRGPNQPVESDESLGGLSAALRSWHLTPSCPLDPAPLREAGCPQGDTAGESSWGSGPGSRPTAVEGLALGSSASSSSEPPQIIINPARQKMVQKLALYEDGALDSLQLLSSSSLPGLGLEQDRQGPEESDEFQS
# [20] = target: ITK (human) (UniProt Q08881)
# [21] = target: MAPK12 (human) (UniProt P53778)
# [22] = target: MAPK8 (human) (UniProt P45983)
# [23] = target: MAPK9 (human) (UniProt P45984)
# [24] = target: MAPKAPK2 (human) (UniProt P49137)
# [25] = target: MKNK2 (human) (UniProt Q9HBH9)
# [26] = target: MYLK2 (human) (UniProt Q9H1R3)
# [27] = target: NEK2 (human) (UniProt P51955)
# [28] = target: NUAK2 (human) (UniProt Q9H093)
# Chain of NUAK2 (human) (Q9H093 whole entry, looked up): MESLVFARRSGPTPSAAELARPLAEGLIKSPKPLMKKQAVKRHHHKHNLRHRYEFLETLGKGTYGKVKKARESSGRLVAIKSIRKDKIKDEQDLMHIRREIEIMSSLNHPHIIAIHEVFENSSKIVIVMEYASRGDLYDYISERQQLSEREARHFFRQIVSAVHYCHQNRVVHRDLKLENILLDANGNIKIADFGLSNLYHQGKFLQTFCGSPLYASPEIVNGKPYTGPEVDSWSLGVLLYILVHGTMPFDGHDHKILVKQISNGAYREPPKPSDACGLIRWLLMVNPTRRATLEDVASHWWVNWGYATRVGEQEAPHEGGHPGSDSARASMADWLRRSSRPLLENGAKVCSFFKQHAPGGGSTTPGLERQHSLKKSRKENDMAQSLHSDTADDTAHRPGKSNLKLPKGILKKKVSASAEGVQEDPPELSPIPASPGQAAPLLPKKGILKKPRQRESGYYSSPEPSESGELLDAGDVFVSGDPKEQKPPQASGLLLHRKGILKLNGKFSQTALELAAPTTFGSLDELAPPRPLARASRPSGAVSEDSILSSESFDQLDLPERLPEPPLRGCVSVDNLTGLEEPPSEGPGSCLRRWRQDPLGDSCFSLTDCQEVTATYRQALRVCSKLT
# [29] = target: PLK2 (human) (UniProt Q9NYY3)
# [30] = target: PRKCB2 (human) (UniProt P05771)
# [31] = target: PRKCD (human) (UniProt Q05655)
# Chain of PRKCD (human) (Q05655 whole entry, looked up): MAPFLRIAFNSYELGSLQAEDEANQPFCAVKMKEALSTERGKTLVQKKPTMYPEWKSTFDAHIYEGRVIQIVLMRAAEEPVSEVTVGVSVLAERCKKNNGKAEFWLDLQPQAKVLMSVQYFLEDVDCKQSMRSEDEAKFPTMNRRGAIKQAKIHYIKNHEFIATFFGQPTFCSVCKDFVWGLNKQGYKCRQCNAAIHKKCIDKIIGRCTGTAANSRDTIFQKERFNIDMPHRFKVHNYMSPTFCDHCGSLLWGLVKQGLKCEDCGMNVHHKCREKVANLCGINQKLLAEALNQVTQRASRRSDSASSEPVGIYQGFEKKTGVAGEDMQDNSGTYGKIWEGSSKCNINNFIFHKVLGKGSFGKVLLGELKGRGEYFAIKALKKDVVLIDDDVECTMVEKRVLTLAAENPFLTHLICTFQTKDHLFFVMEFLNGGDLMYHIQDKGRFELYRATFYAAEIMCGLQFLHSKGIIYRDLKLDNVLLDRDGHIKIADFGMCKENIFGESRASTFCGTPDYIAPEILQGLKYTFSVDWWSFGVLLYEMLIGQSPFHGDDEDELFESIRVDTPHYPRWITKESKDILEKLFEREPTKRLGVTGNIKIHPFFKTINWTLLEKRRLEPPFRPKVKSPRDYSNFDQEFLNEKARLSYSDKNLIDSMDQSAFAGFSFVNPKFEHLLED
# [32] = target: PRKD2 (human) (UniProt Q9BZL6)
# Chain of PRKD2 (human) (Q9BZL6 whole entry, looked up): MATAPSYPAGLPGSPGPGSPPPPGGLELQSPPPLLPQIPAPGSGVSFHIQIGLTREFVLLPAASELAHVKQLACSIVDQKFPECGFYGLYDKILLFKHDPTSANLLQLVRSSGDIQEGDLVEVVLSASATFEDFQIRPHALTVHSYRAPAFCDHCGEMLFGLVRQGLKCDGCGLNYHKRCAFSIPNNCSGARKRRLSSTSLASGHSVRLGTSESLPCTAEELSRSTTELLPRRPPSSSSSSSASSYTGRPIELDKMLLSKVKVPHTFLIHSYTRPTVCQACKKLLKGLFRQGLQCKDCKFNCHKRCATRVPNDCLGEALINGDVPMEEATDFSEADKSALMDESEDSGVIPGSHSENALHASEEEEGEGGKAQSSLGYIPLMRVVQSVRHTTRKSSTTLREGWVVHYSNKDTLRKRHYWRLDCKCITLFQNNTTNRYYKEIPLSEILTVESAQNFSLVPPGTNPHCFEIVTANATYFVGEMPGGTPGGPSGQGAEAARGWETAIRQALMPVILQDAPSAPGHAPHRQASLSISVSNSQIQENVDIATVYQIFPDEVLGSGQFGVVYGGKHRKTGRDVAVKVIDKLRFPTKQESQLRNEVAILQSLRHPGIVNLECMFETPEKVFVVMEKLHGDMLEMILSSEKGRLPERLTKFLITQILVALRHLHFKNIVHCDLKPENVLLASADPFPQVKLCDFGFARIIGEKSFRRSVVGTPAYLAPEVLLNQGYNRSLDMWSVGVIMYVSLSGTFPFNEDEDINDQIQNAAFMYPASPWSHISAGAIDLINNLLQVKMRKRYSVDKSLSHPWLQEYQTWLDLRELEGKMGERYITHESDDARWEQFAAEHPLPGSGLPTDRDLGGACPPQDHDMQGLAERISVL
# [33] = target: PTK6 (human) (UniProt Q13882)
# [34] = target: SRC (human) (UniProt P12931)
# [35] = target: SRPK3 (human) (UniProt Q9UPE1)
# [36] = target: STK10 (human) (UniProt O94804)
# [37] = target: STK24 (human) (UniProt Q9Y6E0)
# [38] = target: STK3 (human) (UniProt Q13188)
# [39] = target: SYK (human) (UniProt P43405)
# [40] = target: TAOK2 (human) (UniProt Q9UL54)
# [41] = target: TSSK2 (human) (UniProt Q96PF2)
# Chain of TSSK2 (human) (Q96PF2 whole entry, looked up): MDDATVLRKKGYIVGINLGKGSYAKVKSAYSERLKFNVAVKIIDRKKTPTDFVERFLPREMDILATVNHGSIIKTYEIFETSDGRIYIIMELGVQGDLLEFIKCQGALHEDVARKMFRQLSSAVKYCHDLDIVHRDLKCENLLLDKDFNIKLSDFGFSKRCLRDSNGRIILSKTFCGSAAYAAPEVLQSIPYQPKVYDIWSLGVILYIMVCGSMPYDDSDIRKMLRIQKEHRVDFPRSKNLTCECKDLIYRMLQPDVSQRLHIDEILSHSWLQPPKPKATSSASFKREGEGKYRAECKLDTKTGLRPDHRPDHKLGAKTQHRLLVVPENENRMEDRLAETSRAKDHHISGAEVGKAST
# [42] = target: VRK1 (human) (UniProt Q99986)
# Chain of VRK1 (human) (Q99986 whole entry, looked up): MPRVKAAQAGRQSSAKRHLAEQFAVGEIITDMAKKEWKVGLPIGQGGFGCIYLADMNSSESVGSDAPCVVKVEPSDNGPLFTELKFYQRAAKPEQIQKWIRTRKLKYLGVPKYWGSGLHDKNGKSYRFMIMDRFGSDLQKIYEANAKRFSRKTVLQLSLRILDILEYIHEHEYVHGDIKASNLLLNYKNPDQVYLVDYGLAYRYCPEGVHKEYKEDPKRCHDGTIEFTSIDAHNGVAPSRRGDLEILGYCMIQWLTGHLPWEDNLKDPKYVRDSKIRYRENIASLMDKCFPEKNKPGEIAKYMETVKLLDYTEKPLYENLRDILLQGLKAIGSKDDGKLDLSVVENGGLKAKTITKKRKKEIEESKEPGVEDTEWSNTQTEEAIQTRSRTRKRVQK
smiles,measurement,setting,value
O=c1c(-c2ccc(F)cc2)c(-c2ccncc2)[nH]n1-c1ccc(Cl)cc1,residual activity,[1],97.8%
same,residual activity,[2],91.6%
same,residual activity,[3],95.8%
same,residual activity,[4],83.6%
same,residual activity,[5],102%
same,residual activity,[6],101%
same,residual activity,[7],97.4%
same,residual activity,[8],35%
same,residual activity,[9],99.9%
same,residual activity,[10],90.6%
same,residual activity,[11],87.6%
same,residual activity,[12],94.4%
same,residual activity,[13],90.5%
same,residual activity,[14],94%
same,residual activity,[15],92.4%
same,residual activity,[16],91.1%
same,residual activity,[17],101%
same,residual activity,[18],92.8%
same,residual activity,[19],103%
same,residual activity,[20],79.7%
same,residual activity,[21],85.2%
same,residual activity,[22],90.2%
same,residual activity,[23],6.07%
same,residual activity,[24],98.5%
same,residual activity,[25],97.2%
same,residual activity,[26],101%
same,residual activity,[27],85.4%
same,residual activity,[28],88.7%
same,residual activity,[29],92.5%
same,residual activity,[30],92.4%
same,residual activity,[31],92.6%
same,residual activity,[32],73.4%
same,residual activity,[33],57.5%
same,residual activity,[34],91.6%
same,residual activity,[35],92.2%
same,residual activity,[36],81.9%
same,residual activity,[37],111%
same,residual activity,[38],88.3%
same,residual activity,[39],98.9%
same,residual activity,[40],101%
same,residual activity,[41],80%
same,residual activity,[42],92.9%
N#CCCc1ccc2c(c1)-c1[nH]c3ccc([N+](=O)[O-])cc3c1CC(=O)N2,residual activity,[1],100%
same,residual activity,[2],78.8%
same,residual activity,[3],99.5%
same,residual activity,[4],94.6%
same,residual activity,[5],11.8%
same,residual activity,[6],25.9%
same,residual activity,[8],91.4%
same,residual activity,[9],104%
same,residual activity,[10],105%
same,residual activity,[11],89.8%
same,residual activity,[12],105%
same,residual activity,[13],99.1%
same,residual activity,[14],93.2%
same,residual activity,[15],89.1%
same,residual activity,[16],63.8%
same,residual activity,[17],104%
same,residual activity,[18],92.2%
same,residual activity,[19],74.9%
same,residual activity,[20],99.9%
same,residual activity,[21],98.9%
same,residual activity,[22],93.1%
same,residual activity,[23],97.1%
same,residual activity,[24],83.4%
same,residual activity,[25],87.7%
same,residual activity,[26],93.9%
same,residual activity,[27],92.7%
same,residual activity,[28],67.6%
same,residual activity,[29],99%
same,residual activity,[30],76.3%
same,residual activity,[31],74.9%
same,residual activity,[32],94.2%
same,residual activity,[33],94.6%
same,residual activity,[34],30.8%
same,residual activity,[35],94.6%
same,residual activity,[36],74.1%
same,residual activity,[37],57.7%
same,residual activity,[38],40.9%
same,residual activity,[39],58%
same,residual activity,[40],86.4%
same,residual activity,[41],78.7%
same,residual activity,[42],97.5%
